Measurements: patent publication US20100209542A1, “Methods For Treating Withdrawal From Addictive Compounds” (priority 2008, published 2010)

Experiments:
[1] = system: opioid receptors; conditions: guinea pig ileum, compared with morphine; cited from earlier work
[2] = system: mice; conditions: cited from earlier work
[3] = system: morphine withdrawal symptoms; assay: naloxone-precipitated morphine withdrawal symptoms after replacement with compound; assay type: in vivo, mice; conditions: for Jumping Frequency / Last Day % Weight Control / Locomotor Activity / Paw Tremor Frequency / Teeth Chattering Frequency / Wet Dog Shakes Frequency: + 10 mg/kg naloxone i.p.
Protocol: (§1) In this experiment mice were chronically administered either morphine using an increasing dose paradigm starting at 20 mg/kg and ending at 100 mg/kg (i.p.) or a saline vehicle control for six days. […] Morphine withdrawal symptoms were initiated by the injection of naloxone (10 mg/kg; i.p.). Kratom extract and mitragyine reduced naloxone-precipitated morphine withdrawal symptoms in a similar manner as methadone.

[4] = system: withdrawal symptoms; assay: compound followed by naloxone administration (control values); assay type: in vivo, mice
Protocol: as §1

[5] = biological target: T1, Adenosine A2A (Homo sapiens, UniProt P29274); assay: high throughput radioligand binding screen, Adenosine A2A
T1 construct: Novascreen Biosciences Corp

[6] = system: Adrenergic (Alpha 2); assay: high throughput radioligand binding screen, Adrenergic (Alpha 2)
[7] = biological target: T2, Dopamine D2 (Homo sapiens, UniProt P14416); assay: high throughput radioligand binding screen, Dopamine D2
T2 construct: Novascreen Biosciences Corp

[8] = biological target: T3, Serotonin, 5HT2C (Homo sapiens, UniProt P28335); assay: high throughput radioligand binding screen, Serotonin 5HT2C
T3 construct: Novascreen Biosciences Corp
T3 sequence (P28335 33-458): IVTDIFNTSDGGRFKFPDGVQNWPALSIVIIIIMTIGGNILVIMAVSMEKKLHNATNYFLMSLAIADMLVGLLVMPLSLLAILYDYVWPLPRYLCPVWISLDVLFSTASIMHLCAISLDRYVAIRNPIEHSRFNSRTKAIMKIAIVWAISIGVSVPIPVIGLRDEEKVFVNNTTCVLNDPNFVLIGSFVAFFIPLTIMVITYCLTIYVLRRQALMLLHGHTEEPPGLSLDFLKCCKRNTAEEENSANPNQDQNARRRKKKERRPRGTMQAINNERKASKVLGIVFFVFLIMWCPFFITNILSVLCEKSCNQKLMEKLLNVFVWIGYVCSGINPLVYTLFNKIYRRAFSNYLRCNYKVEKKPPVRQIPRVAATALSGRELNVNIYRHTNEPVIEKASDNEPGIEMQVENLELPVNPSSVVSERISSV

[9] = biological target: T4, Serotonin, 5HT7 (Homo sapiens, UniProt P34969); assay: high throughput radioligand binding screen, Serotonin 5HT7
T4 construct: Novascreen Biosciences Corp

[10] = mitragynine sample stability in validation of the detection method; conditions: short-term (4 h at room temperature), freeze-thaw (3 cycles), post-processing (16 h at 12° C.); any concentration tested
Source text: The coefficient of variation and relative error values at the three concentrations were obtained in the intra- and inter-day assays. See, FIG. 3.

[11] = biological target: T5, delta-opioid receptor (Cavia porcellus, UniProt A0A286XTF2); conditions: guinea pig brain membranes; cited from earlier work
T5 construct: determined using guinea pig brain membranes; from tissue; host or cells: guinea pig brain membranes

[12] = system: respiratory depression; conditions: rat, even at doses of 800 mg/kg, intraperitoneal; cited from earlier work
[13] = animal studies; cited from earlier work
[14] = morphine 20-100 mg/kg i.p., then compound 23 mg/kg p.o.
[15] = morphine 20-100 mg/kg i.p., then compound 100 mg/kg p.o.
[16] = no morphine, compound 23 mg/kg p.o. + 10 mg/kg naloxone i.p.
[17] = no morphine, compound 100 mg/kg p.o. + 10 mg/kg naloxone i.p.
[18] = morphine 20-100 mg/kg i.p. control, no replacement compound
[19] = morphine i.p. + 10 mg/kg naloxone i.p.
[20] = naloxone i.p. group, no morphine

T4 sequence (P34969 whole entry): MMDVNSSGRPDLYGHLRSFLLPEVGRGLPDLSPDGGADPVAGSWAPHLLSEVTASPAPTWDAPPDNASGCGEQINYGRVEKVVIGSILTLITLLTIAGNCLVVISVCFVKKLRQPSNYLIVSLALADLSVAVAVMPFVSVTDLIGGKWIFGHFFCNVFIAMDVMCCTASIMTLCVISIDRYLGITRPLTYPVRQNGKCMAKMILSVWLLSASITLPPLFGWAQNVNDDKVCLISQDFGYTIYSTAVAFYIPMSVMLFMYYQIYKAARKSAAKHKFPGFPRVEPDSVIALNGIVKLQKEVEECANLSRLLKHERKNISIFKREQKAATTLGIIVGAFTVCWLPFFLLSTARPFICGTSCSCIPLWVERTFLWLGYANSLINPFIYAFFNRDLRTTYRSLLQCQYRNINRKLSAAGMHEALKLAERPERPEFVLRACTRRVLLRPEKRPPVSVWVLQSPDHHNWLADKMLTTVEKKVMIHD
T2 sequence (P14416 whole entry): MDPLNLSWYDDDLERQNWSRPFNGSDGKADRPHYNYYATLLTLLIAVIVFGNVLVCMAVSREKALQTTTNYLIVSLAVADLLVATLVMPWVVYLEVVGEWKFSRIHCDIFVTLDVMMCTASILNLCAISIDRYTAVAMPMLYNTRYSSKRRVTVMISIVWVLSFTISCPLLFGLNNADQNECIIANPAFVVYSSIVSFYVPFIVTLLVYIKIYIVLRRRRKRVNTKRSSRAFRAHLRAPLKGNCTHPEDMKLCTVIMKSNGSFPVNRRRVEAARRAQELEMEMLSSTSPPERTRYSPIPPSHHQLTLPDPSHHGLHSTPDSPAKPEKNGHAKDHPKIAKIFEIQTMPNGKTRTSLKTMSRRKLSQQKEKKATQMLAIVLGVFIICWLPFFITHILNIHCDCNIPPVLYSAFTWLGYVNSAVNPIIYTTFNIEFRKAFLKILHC
T1 sequence (P29274 whole entry): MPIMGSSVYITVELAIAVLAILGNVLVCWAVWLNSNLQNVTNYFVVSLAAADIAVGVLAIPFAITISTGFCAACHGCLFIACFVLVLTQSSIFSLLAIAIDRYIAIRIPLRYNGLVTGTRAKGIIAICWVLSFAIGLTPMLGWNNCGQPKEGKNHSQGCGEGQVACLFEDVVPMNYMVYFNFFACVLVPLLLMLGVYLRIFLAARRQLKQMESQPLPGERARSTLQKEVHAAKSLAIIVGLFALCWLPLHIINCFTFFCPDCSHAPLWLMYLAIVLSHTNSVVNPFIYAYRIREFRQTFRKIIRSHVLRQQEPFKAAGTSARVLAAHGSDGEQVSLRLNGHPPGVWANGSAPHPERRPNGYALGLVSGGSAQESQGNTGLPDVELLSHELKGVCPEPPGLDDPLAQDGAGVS
T5 sequence (A0A286XTF2 1-366): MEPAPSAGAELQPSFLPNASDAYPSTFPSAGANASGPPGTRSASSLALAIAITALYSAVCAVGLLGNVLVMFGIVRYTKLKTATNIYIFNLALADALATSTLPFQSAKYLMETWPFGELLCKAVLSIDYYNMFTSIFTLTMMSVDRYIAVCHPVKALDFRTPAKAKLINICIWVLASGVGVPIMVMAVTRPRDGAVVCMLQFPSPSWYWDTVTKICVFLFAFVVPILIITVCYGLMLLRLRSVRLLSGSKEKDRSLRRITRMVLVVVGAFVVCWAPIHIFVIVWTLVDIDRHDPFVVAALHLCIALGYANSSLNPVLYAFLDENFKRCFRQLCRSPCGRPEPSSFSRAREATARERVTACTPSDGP

Which opioid agonist potency [1] does the source give for `CC[C@@H]1CN2CC[C@@]3(O)C(=Nc4cccc(OC)c43)[C@@H]2C[C@@H]1/C(=C\OC)C(=O)OC` [7-hydroxymitragynine] here?
The opioid agonist potency was “higher potency than morphine”.

And the antinociceptive activity [2]?
Its antinociceptive activity is “potent antinociceptive activity”.

Which results are given for `CCC(=O)C(CC(C)N(C)C)(c1ccccc1)c1ccccc1` (centres unmarked) [Methadone, methadone]?
Jumping Frequency [3, 14]: 0.00 ± 0.00; Last Day % Weight Control [3, 14]: 100.1 ± 0.8121 %; Locomotor Activity [3, 14]: 1866 ± 225.9; Paw Tremor Frequency [3, 14]: 110.7 ± 8.809; Teeth Chattering Frequency [3, 14]: 81.20 ± 8.704; Wet Dog Shakes Frequency [3, 14]: 5.600 ± 0.9684; Jumping Frequency [3, 15]: 1.111 ± 0.7536; Last Day % Weight Control [3, 15]: 100.1 ± 1.205 %; Locomotor Activity [3, 15]: 2512 ± 131.5; Paw Tremor Frequency [3, 15]: 8.444 ± 1.692; Teeth Chattering Frequency [3, 15]: 0.00 ± 0.00; Wet Dog Shakes Frequency [3, 15]: 0.6667 ± 0.3333; Jumping Frequency [4, 16]: 0.00 ± 0.00; Last Day % Weight Control [4, 16]: 96.64 ± 1.046 %; Locomotor Activity [4, 16]: 2595 ± 288.4; Paw Tremor Frequency [4, 16]: 6.400 ± 1.462; Teeth Chattering Frequency [4, 16]: 0.00 ± 0.00; Wet Dog Shakes Frequency [4, 16]: 2.000 ± 0.5164; Jumping Frequency [4, 17]: 0.00 ± 0.00; Last Day % Weight Control [4, 17]: 98.30 ± 0.6976 %; Paw Tremor Frequency [4, 17]: 5.000 ± 1.549; Teeth Chattering Frequency [4, 17]: 0.00 ± 0.00; Wet Dog Shakes Frequency [4, 17]: 1.900 ± 0.5859

Which “Jumping Frequency” value [3, 18] does the source give for `CN1CC[C@]23c4c5ccc(O)c4O[C@H]2[C@@H](O)C=C[C@H]3[C@H]1C5` [Morphine, morphine] here?
Its value is 21.6 ± 4.378.

What about the “Last Day % Weight Control” value [3, 18] of the same molecule?
Its value is 89.64 ± 0.6012 %.

And the “Locomotor Activity” value [3, 18]?
The value was 1870 ± 114.2.

What about the “Paw Tremor Frequency” value [3, 18] of the same molecule?
Its value is 156.2 ± 7.124.

What about the “Teeth Chattering Frequency” value [3, 18] of the same molecule?
The value was 76.10 ± 6.572.

What about the “Wet Dog Shakes Frequency” value [3, 18] of the same molecule?
The value was 9.433 ± 1.334.

And the “Jumping Frequency” value [4, 19]?
The value was 21.6 ± 4.378.

And the “Last Day % Weight Control” value [4, 19]?
Its value is 89.64 ± 0.6012 %.

And the “Locomotor Activity” value [4, 19]?
Its value is 1870 ± 114.2.

And the “Paw Tremor Frequency” value [4, 19]?
Its value is 156.2 ± 7.124.

What about the “Teeth Chattering Frequency” value [4, 19] of the same molecule?
The value was 76.10 ± 6.572.

And the “Wet Dog Shakes Frequency” value [4, 19]?
Its value is 9.433 ± 1.334.

With `C=CCN1CC[C@]23c4c5ccc(O)c4O[C@H]2C(=O)CC[C@@]3(O)[C@H]1C5` [Naloxone, naloxone] as the molecule, how does the “Jumping Frequency” value [4, 20] read?
Its value is 1.800 ± 0.9978.

What about the “Last Day % Weight Control” value [4, 20] of the same molecule?
The value was 99.94 ± 1.225 %.

What about the “Locomotor Activity” value [4, 20] of the same molecule?
The value was 3291 ± 145.3.

And the “Paw Tremor Frequency” value [4, 20]?
Its value is 3.800 ± 0.9978.

And the “Teeth Chattering Frequency” value [4, 20]?
The value was 0.00 ± 0.00.

What about the “Wet Dog Shakes Frequency” value [4, 20] of the same molecule?
The value was 0.6000 ± 0.3399.

With `CC[C@@H]1CN2CC[C@]3(Nc4cccc(OC)c4C3=O)[C@@H]2C[C@@H]1/C(=C\OC)C(=O)OC` [mitragynine pseudoindoxyl] as the molecule, how does the opioid agonist potency [1] read?
Its opioid agonist potency is “higher potency than morphine”.

Which “Percentage inhibition of radioligand binding” value (“Percentage inhibition” for short) [5] does the source give for `CC[C@@H]1CN2CCc3c([nH]c4cccc(OC)c34)[C@@H]2C[C@@H]1/C(=C\OC)C(=O)OC` [mitragynine] here?
Its value is “Adenosine A2A: 65.66”.

What about the “Percentage inhibition” value [6] of the same molecule?
The value was “Adrenergic (Alpha 2): 61.92”.

And the “Percentage inhibition” value [7]?
The value was “Dopamine D2: 54.22”.

What about the “Percentage inhibition” value [8] of the same molecule?
The value was “Serotonin, 5HT2C: 58.77”.

And the “Percentage inhibition” value [9]?
The value was “Serotonin, 5HT7: 64.41”.

And the “naloxone-precipitated morphine withdrawal symptoms” value ([3]; mice, p.o. for six days after morphine, in a similar manner as methadone)?
Its value is “reduced”.

And the “Jumping Frequency” value [3, 14]?
Its value is 0.00 ± 0.00.

And the “Last Day % Weight Control” value [3, 14]?
Its value is 101.3 ± 0.8619 %.

And the “Locomotor Activity” value [3, 14]?
The value was 2485 ± 119.1.

And the “Paw Tremor Frequency” value [3, 14]?
The value was 3.200 ± 0.7424.

What about the “Teeth Chattering Frequency” value [3, 14] of the same molecule?
The value was 0.00 ± 0.00.

What about the “Wet Dog Shakes Frequency” value [3, 14] of the same molecule?
Its value is 0.6000 ± 0.2667.

And the “Jumping Frequency” value [4, 16]?
The value was 0.00 ± 0.00.

And the “Last Day % Weight Control” value [4, 16]?
Its value is 98.85 ± 0.8938 %.

And the “Locomotor Activity” value [4, 16]?
Its value is 3010 ± 108.1.

And the “Paw Tremor Frequency” value [4, 16]?
The value was 1.800 ± 0.6464.

And the “Teeth Chattering Frequency” value [4, 16]?
Its value is 0.00 ± 0.00.

What about the “Wet Dog Shakes Frequency” value [4, 16] of the same molecule?
Its value is 0.00 ± 0.00.

What about the “sample stability, variation” value [10] of the same molecule?
Its value is at most 15%.

And the pKi [11]?
The pKi was 7.22±0.21.

And the respiratory depression [12]?
The respiratory depression was “failed to identify respiratory depression”.

And the “analgesic and antitussive properties” value [13]?
Its value is “comparable to codeine”.

What about the opioid withdrawal syndrome [13] of the same molecule?
Its opioid withdrawal syndrome is “suppressed”.

What about the “respiratory depression compared with codeine” value [13] of the same molecule?
Its value is “much less respiratory depression”.
